Reference: ChEMBL document CHEMBL3507680, “University of Dundee, Gates Library screen for HepG2 cell viability”

Test: Human HepG2 cell viability assay in 384 well format
Format: toxicity, cell-based
Parameters: dose 125 nL, time 70.5 hour; cytotoxicity at 70.5 h: concentration not given beside the values
Conditions: HepG2 cells, read-out: Inhibition

Structure (SMILES) | cytotoxicity at 70.5 h
COc1ccc(N2CCC(NCc3csc(C(C)C)n3)CC2)cc1 | 4.75%
Cc1cc(NC(=O)NC(C)(C)c2nc(C)c(C)s2)no1 | -8.02%
CCCOCCOC(=O)c1ccc2c(c1)[nH]c(=O)n2C | 11.7%
NC(=O)CN1CCN(CC2CC2)c2ccccc21 | 13.1%
Cc1cc(NC(=O)CCNC(C)(C)c2nc(C)c(C)s2)no1 | -5.95%
O=C(NCc1nncn1C1CC1)C1(c2cccc(F)c2)CCOCC1 | -9.71%
O[C@@H]1Cc2ccccc2[C@@H]1Nc1ncccc1F | -9.59%
Cc1csc(CN(CC2CCCO2)C(=O)c2cccnc2C)n1 (centres undefined) | -6.56%
CCCn1nnnc1CSc1nccn1CC | -0.835%
Cc1cc(C(=O)NCC2CCCO2)c(C)n1-c1cccnc1 (centres undefined) | -10.8%
Cc1csc(CN(C)CCCOc2cccc(C#N)c2)n1 | 13.7%
Cc1cc(CN2CCN(CC(=O)NC3(C#N)CCCCC3)CC2)on1 | 2.07%
CC(c1ncc(C(C)(C)C)o1)N1CCN(Cc2ccco2)CC1 (centres undefined) | -5.45%
Cc1nc(CN[C@H]2CCCN(C(=O)OC(C)(C)C)C2)cs1 | -3.34%
CC1CCc2nc(NC(=O)CN(C)C(=O)c3ccco3)sc2C1 (centres undefined) | 28.3%
Cc1cc(NCCNc2ccc(C#N)cn2)nc(C)n1 | -6.84%
COCCOc1ccccc1NC(C)C(=O)NC(=O)NC(C)(C)C (centres undefined) | -15.9%
CCN(CC)c1nc2sc(C(=O)NCC(=O)OC)cc2s1 | 19.9%
O=S(=O)(Cc1ccccc1)NCC1CCCN(Cc2cccs2)C1 (centres undefined) | -0.373%
Cc1csc(CCNc2ccc(C#N)cc2F)n1 | -10.7%

Structure (SMILES) | cytotoxicity at 70.5 h
CS(=O)(=O)NCC1CCCCN1Cc1ccccc1C#N (centres undefined) | -10.5%
c1csc(-c2cc(CN3CCN(c4nccs4)CC3)no2)c1 | -10.2%
COC(=O)N1CCCC(NC(=O)NCc2nc(C)cs2)C1 (centres undefined) | -8.72%
Cc1cc(N2CCN(C(=O)c3cn(C)c4ccccc34)CC2)nc(C)n1 | 20.3%
COC(=O)N1CCCC(NC(=O)NCc2ccc(C)nc2)C1 (centres undefined) | -4.96%
Cc1noc(C(C)N2CCN(c3ncnc4sccc34)CC2)n1 (centres undefined) | -7.54%
CC(NC(=O)c1cc(N2CCNC2=O)ccc1F)c1ccc(F)cc1 (centres undefined) | -4.65%
Cc1csc(C2CCCCN2C(=O)c2cnn3ccc(C)nc23)n1 (centres undefined) | -18.6%
Cc1ccn2ncc(C(=O)N3CCCC(c4noc(C)n4)C3)c2n1 (centres undefined) | 14.9%
CN(C)c1ccccc1CN1CCCCC1CNS(C)(=O)=O (centres undefined) | -4.51%
COC(=O)N1CCCC(NC(=O)NCc2cccc(C)n2)C1 (centres undefined) | -6.49%
Cc1ccn2ncc(C(=O)N3CCCC(c4cc(C)[nH]n4)C3)c2n1 (centres undefined) | -7.17%
Cc1nn(C)c(C)c1C1CCCN1CCOc1ccccc1C#N (centres undefined) | 1.39%
O=C1CCCN1CCc1nc(-c2ccsc2)no1 | -14.2%
Cn1cc(C2CCCN2C(=O)COC2CCCCC2)cn1 (centres undefined) | -11.1%
COc1ccc2c(c1)CCCN2C(=O)CNCC1CN(C)CCO1 (centres undefined) | 12.1%
Cc1nn(C(C)(C)C)c(=O)n1CC(=O)NC(C)(C)C | 10.6%
COCC(C)NC(=O)c1cncc(Br)c1 (centres undefined) | -0.743%
Clc1ccc(OCCNC2(c3ccc(Br)cc3)CCOCC2)cc1 | 9.53%
O=C(c1csc(-c2ccco2)n1)N(CC1CCOC1)C1CC1 (centres undefined) | 4.66%

Structure (SMILES) | cytotoxicity at 70.5 h
O=C(NCc1ccc(-n2cncn2)nc1)N(CC1CCOC1)C1CC1 (centres undefined) | -5.41%
Cc1ccc(C(=O)N(Cc2ccccc2F)C2CC2)c(=O)[nH]1 | 7.09%
COc1ccc(OC)c(CN(C(=O)c2ccc(C)[nH]c2=O)C2CC2)c1 | 3.46%
Cc1ccc(C(=O)N(Cc2ccc(F)cc2)C2CC2)c(=O)[nH]1 | -3.98%
CC(C)(C)OC(=O)NCC(=O)NCc1ccc(Cl)s1 | -0.913%
CC(NC(=O)COc1ccccc1I)C1CC1 (centres undefined) | -1.97%
COc1ccccc1C1(C(=O)N2CCN(CC(C)O)CC2)CC1 (centres undefined) | -0.267%
CC(C)OC(=O)N1CCC(Nc2ncc(Br)cn2)CC1 | -2.18%
Cc1nc(CSCCC(=O)NCC(=O)NC(C)C)cs1 | 1.26%
CN(C)CC1CN(CC(=O)N2CCc3ccccc32)CCO1 (centres undefined) | 11.8%
CN(C)C1CCCN(C(=O)NCCNC(=O)C2CCCCC2)C1 (centres undefined) | 3.73%
COCc1ccccc1C(=O)NCC(O)c1ccccc1F (centres undefined) | -2.57%
Cc1cccnc1CNc1ccc(C(=O)N2CCc3ccccc32)cn1 | 0.0725%
CCCC(=O)N1CCC(Nc2ncc(Br)cn2)CC1 | 0.868%
CN(C)C1CCCN(C(=O)NCCC(=O)N2CCCCCC2)C1 (centres undefined) | 0.671%
CCn1ccnc1CN1CCN(c2ncnc3ccsc23)CC1C (centres undefined) | 0.44%
CCC(O)CN1CCN(C(=O)C2(c3ccc(C)c(OC)c3)CC2)CC1 (centres undefined) | 4.09%
COc1cc(C2(C(=O)N3CCN(CC(C)(C)O)CC3)CC2)ccc1C | -0.73%
CC(C)OCCNC1(c2ccc(F)cc2)CCOCC1 | -3.2%
